± gives the standard deviation of the averaged measurements.
These molecules were tested on ZR-75-1 (assay: relative cell number vs DMSO control (72 h) (% of DMSO); higher = less growth inhibition (more cells)). Settings: sgRNA knockout: sgNT, 100 nM.
Method: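 QMAP-Seq: a pool of 5 breast cancer cell lines (ZR-75-1, SKBR3, HCC-38, MDA-MB-231, BT-20), each carrying 12 doxycycline-inducible Cas9 sgRNA perturbations (11 knockouts plus non-targeting sgNT), was treated with compounds for 72 h at four 10-fold doses (10 nM-10 uM or 1 nM-1 uM range). Barcodes were amplified and sequenced, and cell number was interpolated from 293T spike-in standard curves. The result is expressed as % of the median of DMSO wells. Two biological replicates.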
`C[C@]1(c2nc3c(C(N)=O)cccc3[nH]2)CCCN1` [Veliparib] showed a relative cell number of 96.9 ± 12.
For `COc1cc(Nc2ncc3c(n2)-c2ccc(Cl)cc2C(c2c(F)cccc2OC)=NC3)ccc1C(=O)O` [Alisertib], the relative cell number was 39.4 ± 3.1.
Work on `Cc1cc(N2CCOCC2)cc2[nH]c(-c3c(NC[C@@H](O)c4cccc(Cl)c4)cc[nH]c3=O)nc12` yielded a relative cell number of 53.3 ± 10.
With `Cc1ccc(S(=O)(=O)OCC(=O)Nc2ccc(C(=O)O)c(O)c2)cc1` the relative cell number was 68.9 ± 12.
Molecule `CC(C)[C@]12O[C@H]1[C@@H]1O[C@]13[C@]1(O[C@H]1C[C@H]1C4=C(CC[C@@]13C)C(=O)OC4)[C@@H]2O` [Triptolide] has a relative cell number of 11.3 ± 8.5.
In the case of `C#Cc1cccc(Nc2ncnc3cc(OCCOC)c(OCCOC)cc23)c1` [Erlotinib], the relative cell number is reported as 63.2 ± 3.8.
`Cc1ccc(C(=O)N(CCCN)[C@@H](c2oc3cc(Cl)ccc3c(=O)c2Cc2ccccc2)C(C)C)cc1` gave a relative cell number of 21.8 ± 0.36.
Molecule `CS(=O)(=O)N1CCN(Cc2cc3nc(-c4cccc5[nH]ncc45)nc(N4CCOCC4)c3s2)CC1` [GDC0941] has a relative cell number of 62.4 ± 20.
`Cc1nc(Nc2n[nH]c3c2CN(C(=O)N[C@H](CN(C)C)c2ccccc2)C3(C)C)c2sccc2n1` was tested, and the relative cell number was 49.8 ± 19.
Work on `C=CCc1cccc(/C=N/NC(=O)CN2CCN(Cc3ccccc3)CC2)c1O` [PAC1] yielded a relative cell number of 46.5 ± 24.
Work on `COc1cc2nccc(Oc3ccc(NC(=O)C4(C(=O)Nc5ccc(F)cc5)CC4)cc3)c2cc1OC` [Cabozantinib] yielded a relative cell number of 102 ± 2.8.

Same assay, conditions: sgRNA knockout: sgNT, 1000 nM
`CC(C)(C)OC(=O)CN(Cc1ccc(Cl)cc1)Cc1ccc([N+](=O)[O-])s1` [GSK4112] gave a relative cell number of 86.4 ± 8.4.
`C=C1C[C@@H]2[C@H](CC[C@]3(C)C(=O)CC[C@@H]23)[C@@]2(C)C=CC(=O)C=C12` [Exemestane] showed a relative cell number of 104 ± 67.
Work on `COc1cc([C@@H]2c3cc4c(cc3[C@@H](O[C@@H]3O[C@@H]5CO[C@@H](c6cccs6)O[C@H]5[C@H](O)[C@H]3O)[C@H]3COC(=O)[C@H]23)OCO4)cc(OC)c1O` [Teniposide] yielded a relative cell number of 29.9 ± 8.2.
In the case of `COc1cccc2cc(-c3nc([C@H]4CC[C@H](C(=O)O)CC4)n4ncnc(N)c34)[nH]c12` [OSI027], the relative cell number is reported as 63.4 ± 24.
With `CN(C)C/C=C/C(=O)Nc1cc2c(Nc3ccc(F)c(Cl)c3)ncnc2cc1O[C@H]1CCOC1` [Afatinib] the relative cell number was 68.8 ± 6.8.
Work on `Cc1cnc(-c2cnc(NCCNc3ccc(C#N)cn3)nc2-c2ccc(Cl)cc2Cl)[nH]1` yielded a relative cell number of 66.2 ± 15.
With `O=C(O)CC[C@H]1CC[C@@](c2cc(F)ccc2F)(S(=O)(=O)c2ccc(Cl)cc2)CC1` [MK0752] the relative cell number was 107 ± 22.
For `CC[C@H](C)C(=O)O[C@H]1C[C@@H](C)C=C2C=C[C@H](C)[C@H](CC[C@@H]3C[C@@H](O)CC(=O)O3)[C@H]21` [Lovastatin], the relative cell number was 100.5 ± 0.94.
Molecule `NC(=O)Nc1sc(-c2ccc(F)cc2)cc1C(N)=O` [TPCA1] has a relative cell number of 99.5 ± 6.5.
`C[C@]1(c2nc3c(C(N)=O)cccc3[nH]2)CCCN1` [Veliparib] gave a relative cell number of 97.1 ± 24.
`COc1cc(Nc2ncc3c(n2)-c2ccc(Cl)cc2C(c2c(F)cccc2OC)=NC3)ccc1C(=O)O` [Alisertib] showed a relative cell number of 42 ± 10.
In the case of `Cc1cc(N2CCOCC2)cc2[nH]c(-c3c(NC[C@@H](O)c4cccc(Cl)c4)cc[nH]c3=O)nc12`, the relative cell number is reported as 84.2 ± 8.8.
In the case of `Cc1ccc(S(=O)(=O)OCC(=O)Nc2ccc(C(=O)O)c(O)c2)cc1`, the relative cell number is reported as 99.1 ± 36.
`CC(C)[C@]12O[C@H]1[C@@H]1O[C@]13[C@]1(O[C@H]1C[C@H]1C4=C(CC[C@@]13C)C(=O)OC4)[C@@H]2O` [Triptolide] gave a relative cell number of 7.98 ± 1.1.
In the case of `C#Cc1cccc(Nc2ncnc3cc(OCCOC)c(OCCOC)cc23)c1` [Erlotinib], the relative cell number is reported as 97 ± 18.
`Cc1ccc(C(=O)N(CCCN)[C@@H](c2oc3cc(Cl)ccc3c(=O)c2Cc2ccccc2)C(C)C)cc1` gave a relative cell number of 27.9 ± 5.1.
Work on `CS(=O)(=O)N1CCN(Cc2cc3nc(-c4cccc5[nH]ncc45)nc(N4CCOCC4)c3s2)CC1` [GDC0941] yielded a relative cell number of 52.5 ± 23.
`Cc1nc(Nc2n[nH]c3c2CN(C(=O)N[C@H](CN(C)C)c2ccccc2)C3(C)C)c2sccc2n1` showed a relative cell number of 25.6 ± 4.3.
`C=CCc1cccc(/C=N/NC(=O)CN2CCN(Cc3ccccc3)CC2)c1O` [PAC1] was tested, and the relative cell number was 89.6 ± 8.7.
Molecule `COc1cc2nccc(Oc3ccc(NC(=O)C4(C(=O)Nc5ccc(F)cc5)CC4)cc3)c2cc1OC` [Cabozantinib] has a relative cell number of 111 ± 40.

Same assay, conditions: sgRNA knockout: sgNT, 10000 nM
Molecule `CC(C)(C)OC(=O)CN(Cc1ccc(Cl)cc1)Cc1ccc([N+](=O)[O-])s1` [GSK4112] has a relative cell number of 100 ± 29.
Work on `C=C1C[C@@H]2[C@H](CC[C@]3(C)C(=O)CC[C@@H]23)[C@@]2(C)C=CC(=O)C=C12` [Exemestane] yielded a relative cell number of 99 ± 4.8.
`COc1cc([C@@H]2c3cc4c(cc3[C@@H](O[C@@H]3O[C@@H]5CO[C@@H](c6cccs6)O[C@H]5[C@H](O)[C@H]3O)[C@H]3COC(=O)[C@H]23)OCO4)cc(OC)c1O` [Teniposide] showed a relative cell number of 26.1 ± 0.97.
Work on `COc1cccc2cc(-c3nc([C@H]4CC[C@H](C(=O)O)CC4)n4ncnc(N)c34)[nH]c12` [OSI027] yielded a relative cell number of 25.4 ± 2.
`CN(C)C/C=C/C(=O)Nc1cc2c(Nc3ccc(F)c(Cl)c3)ncnc2cc1O[C@H]1CCOC1` [Afatinib] showed a relative cell number of 13 ± 0.97.
`Cc1cnc(-c2cnc(NCCNc3ccc(C#N)cn3)nc2-c2ccc(Cl)cc2Cl)[nH]1` showed a relative cell number of 77.1 ± 10.
With `O=C(O)CC[C@H]1CC[C@@](c2cc(F)ccc2F)(S(=O)(=O)c2ccc(Cl)cc2)CC1` [MK0752] the relative cell number was 127 ± 28.
For `CC[C@H](C)C(=O)O[C@H]1C[C@@H](C)C=C2C=C[C@H](C)[C@H](CC[C@@H]3C[C@@H](O)CC(=O)O3)[C@H]21` [Lovastatin], the relative cell number was 88.2 ± 6.5.
`NC(=O)Nc1sc(-c2ccc(F)cc2)cc1C(N)=O` [TPCA1] gave a relative cell number of 43.1 ± 5.7.
In the case of `C[C@]1(c2nc3c(C(N)=O)cccc3[nH]2)CCCN1` [Veliparib], the relative cell number is reported as 51.4 ± 4.1.
`COc1cc(Nc2ncc3c(n2)-c2ccc(Cl)cc2C(c2c(F)cccc2OC)=NC3)ccc1C(=O)O` [Alisertib] gave a relative cell number of 35.2 ± 1.5.
`Cc1cc(N2CCOCC2)cc2[nH]c(-c3c(NC[C@@H](O)c4cccc(Cl)c4)cc[nH]c3=O)nc12` was tested, and the relative cell number was 13.7 ± 10.
Work on `Cc1ccc(S(=O)(=O)OCC(=O)Nc2ccc(C(=O)O)c(O)c2)cc1` yielded a relative cell number of 103 ± 8.6.
Molecule `C#Cc1cccc(Nc2ncnc3cc(OCCOC)c(OCCOC)cc23)c1` [Erlotinib] has a relative cell number of 84.2 ± 26.
`Cc1ccc(C(=O)N(CCCN)[C@@H](c2oc3cc(Cl)ccc3c(=O)c2Cc2ccccc2)C(C)C)cc1` was tested, and the relative cell number was 3 ± 1.2.
In the case of `CS(=O)(=O)N1CCN(Cc2cc3nc(-c4cccc5[nH]ncc45)nc(N4CCOCC4)c3s2)CC1` [GDC0941], the relative cell number is reported as 26.1 ± 8.7.
`Cc1nc(Nc2n[nH]c3c2CN(C(=O)N[C@H](CN(C)C)c2ccccc2)C3(C)C)c2sccc2n1` gave a relative cell number of 3.38 ± 1.2.
In the case of `C=CCc1cccc(/C=N/NC(=O)CN2CCN(Cc3ccccc3)CC2)c1O` [PAC1], the relative cell number is reported as 12.5 ± 5.5.
In the case of `COc1cc2nccc(Oc3ccc(NC(=O)C4(C(=O)Nc5ccc(F)cc5)CC4)cc3)c2cc1OC` [Cabozantinib], the relative cell number is reported as 28.3 ± 19.

From the supplement of paper PMC7661543
